Patent US8952042B2, “FXR (NR1H4) binding and activity modulating compounds” (Phenex Pharmaceuticals AG, priority 2009, dated 2015)

Legend:
[1] = target: T1, human FXR alpha ligand binding domain (Homo sapiens, UniProt Q96RI1); assay: FRET activity assay (ligand mediated cofactor peptide interaction, LANCE); type: biochemical; details: potency range
T1 construct: made in house; host or cells: E. coli BL21(DE3), vector pDEST15
T1 sequence (Q96RI1 187-472 isoform Q96RI1-2): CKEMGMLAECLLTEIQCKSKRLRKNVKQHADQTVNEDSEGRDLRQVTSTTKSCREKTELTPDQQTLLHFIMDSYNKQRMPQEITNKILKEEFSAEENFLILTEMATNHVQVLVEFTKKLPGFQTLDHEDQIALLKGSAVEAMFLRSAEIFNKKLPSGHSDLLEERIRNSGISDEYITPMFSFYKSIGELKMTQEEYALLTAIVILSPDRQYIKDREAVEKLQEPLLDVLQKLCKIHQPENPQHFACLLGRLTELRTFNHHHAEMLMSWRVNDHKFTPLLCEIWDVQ
Description: Determination of a ligand mediated cofactor peptide interaction to quantify ligand binding to the nuclear receptor FXR was performed as follows: Preparation of human FXR alpha ligand binding domain: The human FXRalpha LBD was expressed in E. coli strain BL21(DE3) as an N-terminally GST tagged fusion protein. The DNA encoding the FXR ligand binding domain was cloned into vector pDEST15 (Invitrogen). Expression was under control of an IPTG inducible T7 promoter. The amino acid boundaries of the ligand binding domain were amino acids 187-472 of Database entry NM_005123 (RefSeq). Expression and purification of the FXR-LBD: An overnight preculture of a transformed E. coli strain was diluted 1:20 in LB-Ampicillin medium and grown at 30° C. to an optical density of OD600=0.4-0.6. Gene expression was then induced by addition of 0.5 mM IPTG. Cells were incubated an additional 6 h at 30° C., 180 rpm. Cells were collected by centrifugation (7000×g, 7 min, room temperature). Per liter of original cell culture, cells were resuspended in 10 mL lysis buffer (50 mM Glucose, 50 mM Tris pH 7.9, 1 mM EDTA and 4 mg/mL lysozyme) and left on ice for 30 min. Cells were then subjected to sonication and cell debris removed via centrifugation (22000×g, 30 min, 4° C.). Per 10 mL of supernatant 0.5 mL prewashed Glutathione 4B sepharose slurry (Qiagen) was added and the suspension kept slowly rotating for 1 h at 4° C. Glutathione 4B sepharose beads were pelleted by centrifugation (2000×g, 15 sec, 4° C.) and washed twice in wash buffer (25 mM Tris, 50 mM KCl, 4 mM MgCl2 and 1M NaCl). The pellet was resuspended in 3 mL elution buffer per liter of original culture (elution buffer: 20 mM Tris, 60 mM KCl, 5 mM MgCl2 and 80 mM glutathione added immediately prior to use as powder). The suspension was left rotating for 15 min at 4° C., the beads pelleted and eluted again with half the volume of elution buffer than the first time. The eluates were pooled and dialysed overnight in 20 mM Hepes buffer (pH 7.5) containing 60 mM KCl, 5 mM MgCl2 as well as 1 mM dithiothreitol and 10% (v/v) glycerol. The protein was analysed by SDS-Page.
The method measures the ability of putative ligands to modulate the interaction between the purified bacterial expressed FXR ligand binding domain (LBD) and a synthetic biotinylated peptide based on residues 676-700 of SRC-1 (LCD2, 676-700). […] The ligand binding domain (LBD) of FXR was expressed as fusion protein with GST in BL-21 cells using the vector pDEST15. Cells were lysed by sonication, and the fusion proteins purified over glutathione sepharose (Pharmacia) according to the manufacturers instructions. For screening of compounds for their influence on the FXR-peptide interaction, the Perkin Elmer LANCE technology was applied. This method relies on the binding dependent energy transfer from a donor to an acceptor fluorophor attached to the binding partner of interest. For ease of handling and reduction of background from compound fluorescence LANCE technology makes use of generic fluorophore labels and time resolved detection Assays were done in a final volume of 25 μL in a 384 well plate, in a Tris-based buffer (20 mM Tris-HCl pH 7.5; 60 mM KCl, 5 mM MgCl2; 35 ng/μL BSA), containing 20-60 ng/well recombinantly expressed FXR-LBD fused to GST, 200-600 nM N-terminally biotinylated peptide, representing SRC1 aminoacids 676-700, 200 ng/well Streptavidin-xIAPC conjugate (Prozyme) and 6-10 ng/well Eu W1024—antiGST (Perkin Elmer). DMSO content of the samples was kept at 1%. After generation of the assay mix and diluting the potentially FXR modulating ligands, the assay was equilibrated for one hour in the dark at room temperature in FIA-plates black 384 well (Greiner). The LANCE signal was detected by a Perkin Elmer VICTOR2V™ Multilabel Counter. The results were visualized by plotting the ratio between the emitted light at 665 and 615 nm.

[2] = target: T2, FXR ligand binding domain (Homo sapiens, UniProt Q96RI1); assay: Mammalian One Hybrid (M1H) Gal4 reporter assay in HEK293 cells; type: cell-based; details: potency range
T2 construct: expressed in transfected cells; host or cells: HEK293 cells (DSMZ), transient transfection of pCMV-BD-FXR-LBD
T2 sequence (Q96RI1 187-472 isoform Q96RI1-2): T1 sequence (Q96RI1 187-472 isoform Q96RI1-2)
Description: Determination of a ligand mediated Gal4 promoter driven transactivation to quantify ligand binding mediated activation of FXR was performed as follows: The cDNA part encoding the FXR ligand binding domain was cloned into vector pCMV-BD (Stratagene) as a fusion to the yeast GAL4 DNA binding domain under the control of the CMV promoter. The amino acid boundaries of the ligand binding domain were amino acids 187-472 of Database entry NM_005123 (RefSeq). The plasmid pFR-Luc (Stratagene) was used as the reporter plasmid, containing a synthetic promoter with five tandem repeats of the yeast GAL4 binding sites, driving the expression of the Photinus pyralis (American firefly) luciferase gene as the reporter gene. In order to improve experimental accuracy the plasmid pRL-CMV (Promega) was cotransfected. pRL-CMV contains the constitutive CMV promoter, controlling the expression of the Renilla reniformis luciferase. All Gal4 reporter gene assays were done in HEK293 cells (obtained from DSMZ, Braunschweig, Germany) grown in MEM with L-Glutamine and Earle's BSS supplemented with 10% fetal bovine serum, 0.1 mM nonessential amino acids, 1 mM sodium pyruvate, and 100 units Penicillin/[…] per mL at 37° C. in 5% CO2. Medium and supplements were obtained from Invitrogen. For the assay, […] were plated per well in 96 well plates in 100 μL per well MEM without Phenol Red and L-Glutamine and with Earle's BSS supplemented with 10% charcoal/dextran treated FBS (HyClone, South Logan, Utah), 0.1 mM nonessential amino acids, 2 mM glutamine, 1 mM sodium pyruvate, and 100 units Penicillin/[…] per mL, incubated at 37° C. in 5% CO2. The following day the cells were >90% confluence. Medium was removed and cells were transiently transfected using 20 μL per well of a OptiMEM—polyethylene-imine-based transfection-reagent (OptiMEM, Invitrogen; Polyethyleneimine, Aldrich Cat No. 40, 827-7) including the three plasmids described above. MEM with the same composition as used for plating cells was added 2-4 h after addition of transfection mixture. Then compound stocks, prediluted in MEM were added (final vehicle concentration not exceeding 0.1%). Cells were incubated for additional 16 h before firefly and renilla luciferase activities were measured sequentially in the same cell extract using a Dual-Light-Luciferase-Assay system (Dyer et al., Anal. Biochem. 2000, 282, 158-161). All experiments were done in triplicates.

Compound	EC50 [1]	EC50 [2]
Cn1nc(C(=O)O)c2ccc(C3CC3c3ccc(OCc4c(-c5c(Cl)cccc5Cl)noc4C4CC4)cc3Cl)cc21 (racemic) [Example 13, 6-(2-(2-chloro-4-((5-cyclopropyl-3-(2,6-dichlorophenyl)isoxazol-4-yl)methoxy)phenyl)cyclopropyl)-1-methyl-1H-indazole-3-carboxylic acid]	10 to 100 nM	10 to 100 nM
O=C(O)c1cccc(C2CC2c2ccc(OCc3c(-c4c(Cl)cncc4Cl)noc3C3CC3)cc2Cl)c1 (stereo not shown) [Example 1, 3-(2-(2-chloro-4-((5-cyclopropyl-3-(3,5-dichloropyridin-4-yl)isoxazol-4-yl)methoxy)phenyl)cyclopropyl)-benzoic acid]	10 to 100 nM	10 to 100 nM
O=C(O)c1cccc(C2CC2c2ccc(OCc3c(-c4c(Cl)c[n+]([O-])cc4Cl)noc3C3CC3)cc2Cl)c1 (stereo not shown) [Example 2, 4-(4-((4-(2-(3-carboxyphenyl)cyclopropyl)-3-chlorophenoxy)methyl)-5-cyclopropylisoxazol-3-yl)-3,5-dichloropyridine 1-oxide]	10 to 100 nM	10 to 100 nM
CC(C)c1nnn(-c2c(Cl)cccc2Cl)c1COc1ccc(C2CC2c2cccc(C(=O)O)c2)c(Cl)c1 (stereo not shown) [Example 3, 3-(2-(2-chloro-4-((1-(2,6-dichlorophenyl)-4-isopropyl-1H-1,2,3-triazol-5-yl)methoxy)phenyl)cyclopropyl)benzoic acid]	10 to 100 nM	10 to 100 nM
CC(C)c1onc(-c2c(Cl)cccc2Cl)c1COc1ccc(C2CC2c2cccc(C(=O)O)c2)c(Cl)c1 (stereo not shown) [Example 6, 3-(2-(2-chloro-4-((3-(2,6-dichlorophenyl)-5-isopropylisoxazol-4-yl)methoxy)phenyl)cyclopropyl)benzoic acid]	10 to 100 nM	10 to 100 nM
Clc1cc(OCc2c(-c3c(Cl)cccc3Cl)noc2C2CC2)ccc1C1CC1c1ccc(-c2nnn[nH]2)nc1 (stereo not shown) [Example 7, 4-((4-(2-(6-(1H-tetrazol-5-yl)pyridin-3-yl)cyclopropyl)-3-chlorophenoxy)methyl)-5-cyclopropyl-3-(2,6-dichlorophenyl)isoxazole]	10 to 100 nM	10 to 100 nM
O=C(O)c1ccc(C2CC2c2ccc(OCc3c(-c4c(Cl)cccc4Cl)noc3C3CC3)cc2Cl)cn1 (stereo not shown) [Example 8, 5-(2-(2-chloro-4-((5-cyclopropyl-3-(2,6-dichlorophenyl)isoxazol-4-yl)methoxy)-phenyl)cyclopropyl)picolinic acid]	10 to 100 nM	10 to 100 nM
O=C(NCCS(=O)(=O)O)c1ccc(C2CC2c2ccc(OCc3c(-c4c(Cl)cccc4Cl)noc3C3CC3)cc2Cl)cc1 (stereo not shown) [Example 15, 2-(4-(2-(2-chloro-4-((5-cyclopropyl-3-(2,6-dichlorophenyl)isoxazol-4-yl)methoxy)phenyl)cyclopropyl)benzamido)ethanesulfonic acid]	10 to 100 nM	> 100 nM
CC(C)(O)c1onc(-c2c(Cl)cccc2Cl)c1COc1ccc(C2CC2c2ccc(C(=O)O)cc2)c(Cl)c1 (stereo not shown) [Example 17, 4-(2-(2-chloro-4-((3-(2,6-dichlorophenyl)-5-(2-hydroxypropan-2-yl)isoxazol-4-yl)methoxy)phenyl)cyclopropyl)benzoic acid]	> 100 nM	> 100 nM

The remaining lines, values ahead:

EC50 [1]	EC50 [2]	Compound
> 100 nM	> 100 nM	O=C(O)c1cccc(C2CC2c2ccc(OCc3c(-c4c(Cl)cccc4Cl)noc3C3CC3)cc2Cl)c1 (single isomer, unassigned; (+)) [Example 5b, (+)-3-(2-(2-chloro-4-((5-cyclopropyl-3-(2,6-dichlorophenyl)isoxazol-4-yl)methoxy)phenyl)cyclopropyl)benzoic acid]
> 100 nM	> 100 nM	O=C(O)c1ccc(C2CC2c2ccc(OCc3c(-c4c(Cl)cccc4Cl)noc3C3CC3)cc2Cl)cc1 (single isomer, unassigned; (+)) [Example 12b, (+)-4-(2-(2-chloro-4-((5-cyclopropyl-3-(2,6-dichlorophenyl)isoxazol-4-yl)methoxy)phenyl)cyclopropyl)benzoic acid]
10 to 100 nM	10 to 100 nM	Cn1nc(C(=O)O)c2ccc(C3CC3c3ccc(OCc4c(-c5c(Cl)cccc5Cl)noc4C4CC4)cc3Cl)cc21 (single isomer, unassigned; (+)) [Example 13a, (+)-6-(2-(2-chloro-4-((5-cyclopropyl-3-(2,6-dichlorophenyl)isoxazol-4-yl)methoxy)phenyl)cyclopropyl)-1-methyl-1H-indazole-3-carboxylic acid]
< 10 nM	10 to 100 nM	O=C(O)c1cccc(C2CC2c2ccc(OCc3c(-c4c(Cl)cccc4Cl)noc3C3CC3)cc2Cl)c1 (single isomer, unassigned; (-)) [Example 5a, (−)-3-(2-(2-chloro-4-((5-cyclopropyl-3-(2,6-dichlorophenyl)isoxazol-4-yl)methoxy)phenyl)cyclopropyl)benzoic acid]
< 10 nM	< 10 nM	Cn1nc(C(=O)O)c2ccc(C3CC3c3ccc(OCc4c(-c5c(Cl)cccc5Cl)noc4C4CC4)cc3Cl)cc21 (single isomer, unassigned; (-)) [Example 13b, (−)-6-(2-(2-chloro-4-((5-cyclopropyl-3-(2,6-dichlorophenyl)isoxazol-4-yl)methoxy)phenyl)cyclopropyl)-1-methyl-1H-indazole-3-carboxylic acid]
